≈ marks a conversion by molar mass, not a printed value.
Test system: T1, Candida rugosa lipase (CRL)
T1 construct: gene LIP1
Experiment: p-nitrophenyl laurate hydrolysis, absorbance at […] nm
Assay type: biochemical, Diutina rugosa
Conditions: substrate p-NPL, pH 7, 37 °C, 15 min preincubation with enzyme; reference compound

Row | SMILES | IC50 value [mg/mL]
1 | CCCCCCCCCCC[C@@H](C[C@@H]1OC(=O)[C@H]1CCCCCC)OC(=O)[C@H](CC(C)C)NC=O [Orlistat] | 0.06 ± 0.000 (≈ 121 µM)
2 | O=c1c(O)c(-c2ccc(O)c(O)c2)oc2cc(O)cc(O)c12 [Quercetin] | 0.32 ± 0.004 (≈ 1060 µM)

— publication PMC11913368, “Antilipase activities of cultivated peppermint and rosemary essential oils: in vitro and in silico studies” (Turkish Journal of Biology, 2025)
